Like-named read-outs stand apart in the source and are kept apart here. Each block holds one compound with its values, some of them ahead of it.
Columns and labels:
[1] = Solubility for fluorescence titrations in PBS; format: physicochemical; conditions: PBS 1× titration conditions
Text: Eqn (1)–(3) can be fit to the two sets of titration data in Fig. 3 to determine the dissociation constant Kd and brightness (ef) of the free and bound BTA dimer, and in the case of high affinity binding, the concentration of binding sites on the protein fibrils. In all cases, the titration data fit well to a 1 : 1 binding isotherm, and the lines shown in Fig. 3 are the calculated lines of best fit.
Fluorescent titrations with the polydisperse mixtures of BTA dimers were used to measure the apparent binding affinities for α-synuclein fibrils in the same way as described above for the monodisperse BTA dimers. The titration data fit well to a 1 : 1 binding isotherm allowing for the fluorescence emission from the free dye as described above, and the results are summarised in Table 2. […] The dissociation constants for the other polydisperse BTA dimers are in the same range as those measured for the monodisperse analogues. […]
5. Fluorescence titrations […]
The fluorescence spectra were analysed using a Microsoft Excel spreadsheet to fit the changes in fluorescence intensity at fixed wavelengths to a 1:1 binding isotherm by optimizing the association constant, the optical brightness of the free and bound guest, and the concentration of protein binding sites using purpose written VBA macros. […]
Figure S25. Fluorescence titration of compound 14. […]
Figure S26. Fluorescence titration of compound 15. […]

[2] = target: T1, α-synuclein aggregates (LB509/pS129-positive Lewy bodies) (Homo sapiens, UniProt P37840); test: Staining of brain sections from patients with Parkinson's disease; conditions: compound 100 nM
T1 construct: tissue Cambridge Brain Bank; host or cells: post-mortem human brain sections, Parkinson's disease, substantia nigra
Text: (§1) Brain sections from patients with Parkinson's disease were labelled with antibodies against α-synuclein (LB509 and pS129) and stained with compounds 13, 14 and 15 (Fig. 8a). LB509/pS129-positive Lewy bodies, that were identified as cytoplasmic spheres, were stained by both compounds 14 and 15 but not by compound 13. […] To assess any potential cross-reactivity with other pathological amyloid aggregates, such as Aβ plaques and neurofibrillary tangles of tau, brain sections from patients with Alzheimer's disease were labelled with antibody against tau (dako tau) and Aβ (4G8) and stained with compounds 13, 14 and 15 (Fig. 8b).
(§2) Fig. 8 Fluorescence microscope images of human brain sections. (a) Sections from patients with Parkinson's disease labelled with antibodies against α-synuclein (LB509 and pS129) and stained with compounds 13, 14 and 15 (100 nM). (b) Sections from patients with Alzheimer's disease labelled with antibodies against tau (dako tau) and Aβ (4G8) and stained with compounds 13, 14 and 15 (1 μM). Scale bar 20 μm.
(§3) Frozen brain tissues from neuropathologically confirmed cases of PD and AD were obtained from the Cambridge Brain Bank (Table S3). Tissue blocks were post-fixed in 4% paraformaldehyde and cryoprotected before snap freezing in OCT. Brain sections (15 μm) were generated using a cryostat (Bright OTF5000) for immunohistochemistry and compound staining.
(§4) Table S3. Details of human tissue used (SN substantia nigra, FL frontal lobe) Case no Diagnosis Braak Stage Brain region Age
9. Immunohistochemistry and Staining
Fixed brain sections were washed with 70% EtOH and allowed to air dry for 20 min before incubation overnight at 4°C with either a mixture of monoclonal antibodies for α-syn (1:500, ab27766, Abcam) and pS129 α-syn (1:500, ab51253, Abcam) for PD sections or a mixture of monoclonal antibody for Aβ (1:500, 800701, Biolegend) and polyclonal antibody for human tau (1:500, A002401-2, Agilent) for AD sections. Sections were washed with PBS 3 x 15 min and incubated for 3 h at room temperature in secondary antibody, either a mixture of goat anti- […]
A11011, ThermoFisher) for PD sections or a mixture of goat anti-mouse ALEXA-647 (1:1000, A21235, ThermoFisher) and goat anti-rabbit ALEXA-546 (1:1000, A11035, ThermoFisher) for AD sections. Compounds 13, 14 and 15 were also diluted in the secondary antibody preparation at stated concentrations. Sections were washed with PBS 3 x 10 min and once with 70% EtOH 5 min before blocking autofluorescence with Autofluorescence Inhibitor (2160, Millipore) for 5 min. After 3 x 1 min washes in 70% EtOH sections were mounted using Fluorosave mounting medium (345789, Millipore). Fluorescence images were taken using a Leica DMI4000B.

[3] = target: Tau-positive neuronal inclusions (Homo sapiens, UniProt P10636); test: Staining of brain sections from patients with Alzheimer's disease (tau); conditions: compound 1 μM
Chain of Tau-positive neuronal inclusions (P10636 623-708 limits assumed): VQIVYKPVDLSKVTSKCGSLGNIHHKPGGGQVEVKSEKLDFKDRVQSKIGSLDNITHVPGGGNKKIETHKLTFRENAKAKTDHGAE
Text: as §1, §2, §3, §4
(§5) 9. Immunohistochemistry and Staining […]
(§6) A11011, ThermoFisher) for PD sections or a mixture of goat anti-mouse ALEXA-647 (1:1000, A21235, ThermoFisher) and goat anti-rabbit ALEXA-546 (1:1000, A11035, ThermoFisher) for AD sections. […] Fluorescence images were taken using a Leica DMI4000B.

[4] = tested on: 4G8-positive extracellular plaques (Aβ); test: Staining of brain sections from patients with Alzheimer's disease (Aβ); set-up: species or system human; conditions: compound 1 μM
Text: as §1, §2, §3, §4, §5, §6

α-synuclein fibrils = α-synuclein fibrils (Homo sapiens, UniProt P37840); test: Fluorescence titration with α-synuclein fibrils; format: binding
Aβ42 fibrils = target: T2, Aβ42 fibrils (Homo sapiens, UniProt P05067); test: Fluorescence titration with Aβ42 fibrils; conditions: monodisperse BTA dimers; 0.5 μM Aβ42; PBS 1× pH 7.4, 298 K; errors at 95% confidence limit; read-out: Dissociation constant (Kd) for binding to Aβ42 fibrils
T2 construct: monomeric amyloid-b1-42; purchased Stratech A-1167-2-RPE
T2 sequence (P05067 672-713 limits assumed): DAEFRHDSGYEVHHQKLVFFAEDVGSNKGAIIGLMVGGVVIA

tau fibrils (htau 0N4R) = target: T3, tau fibrils (htau 0N4R) (Homo sapiens, UniProt P10636); test: Fluorescence titration with tau fibrils; conditions: monodisperse BTA dimers; 0.5 μM tau; PBS 1× pH 7.4, 298 K; errors at 95% confidence limit; read-out: Dissociation constant (Kd) for binding to tau fibrils
T3 construct: purchased InVivo BioTech Services GmbH, Germany
T3 sequence (P10636 1-383 isoform P10636-6): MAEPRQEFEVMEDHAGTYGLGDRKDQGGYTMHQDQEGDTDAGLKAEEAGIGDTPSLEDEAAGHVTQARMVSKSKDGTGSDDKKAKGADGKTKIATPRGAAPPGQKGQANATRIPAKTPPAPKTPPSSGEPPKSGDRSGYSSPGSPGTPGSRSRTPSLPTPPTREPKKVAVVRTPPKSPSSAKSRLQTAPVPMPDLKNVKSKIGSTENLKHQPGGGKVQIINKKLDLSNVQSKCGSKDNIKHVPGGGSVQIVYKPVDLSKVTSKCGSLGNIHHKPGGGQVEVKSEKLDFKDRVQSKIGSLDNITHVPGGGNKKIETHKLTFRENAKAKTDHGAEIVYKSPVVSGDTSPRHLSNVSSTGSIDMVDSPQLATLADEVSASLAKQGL

[5] = target: α-synuclein sonicated fibrils (Homo sapiens, UniProt P37840); test: TIRFM imaging of α-synuclein aggregates in vitro; conditions: nanomolar 15 (4 nM, 200 nM) vs 5 μM ThT; fibrils from 200 nM monomer
Text: The highest affinity BTA dimers were investigated as fluorescence imaging agents for protein aggregates. Fig. 7 compares in vitro imaging of α-synuclein aggregates with 15 and with thioflavin T (ThT). ThT is widely used to image aggregates, because it has a very low fluorescence emission intensity in the free state, and there is a large increase in fluorescence emission on binding to protein aggregates. The corresponding change in fluorescence emission intensity is much lower for the BTA dimers described here (see Fig. 3).
Fig. 7 TIRFM images of α-synuclein sonicated fibrils in the presence of (a) 4 nM 15, (b) 200 nM 15 and (c) 5 μM ThT. Fibrils were obtained from 200 nM samples of the monomer. All images have the same contrast. Scale bar 10 μm.
7. Total internal reflection fluorescence microscopy (TIRFM) imaging
Imaging was performed using a homebuilt total internal reflection fluorescence microscope as reported previously.7 Briefly, this imaging mode restricts detectable axial fluorescence signal to within ~200 nm from the glass-water interface. […] Fluorescence was collected by the same objective and was separated from the returning TIR beam by a dichroic (Di01-R405/488/561/635, Semrock), and passed through […]
respectively). The images were recorded on an EMCCD camera (Evolve 512, Photometrics) operating in frame transfer mode (EMGain of 11.5 e−/ADU and 250 ADU/photon). […]

[6] = monodisperse BTA dimers, 1 μM α-synuclein, PBS 1× pH 7.4, 298 K, errors at 95% confidence limit, read-out: Dissociation constant (Kd) for binding to α-synuclein fibrils

Kd (α-synuclein fibrils; [6]): 2.7 ± 1.5 nM
Kd (Aβ42 fibrils): 78 ± 26 nM
Kd (tau fibrils (htau 0N4R)): 1000 ± 300 nM
Staining of LB509/pS129-positive Lewy bodies [2]: stained
Staining of tau-positive neuronal inclusions [3]: no staining
Image brightness compared with ThT [5]: brighter
Structure (SMILES): CN(C)c1ccc(-c2nc3ccc(OCCOCCOCCOCCOCCOCCOCCOCCOCCOc4ccc5nc(-c6ccc(N(C)C)cc6)sc5c4)cc3s2)cc1 [Compound 15]
Staining of 4G8-positive extracellular plaques [4]: no staining

Kd (α-synuclein fibrils; [6]): 35 ± 15 nM
Kd (Aβ42 fibrils): 7 ± 5 nM
Kd (tau fibrils (htau 0N4R)): 110 ± 57 nM
Structure (SMILES): CN(C)c1ccc(-c2nc3ccc(OCCOCCOCCOCCOCCOCCOCCOCCOCCOCCOCCOCCOCCOCCOCCOc4ccc5nc(-c6ccc(N(C)C)cc6)sc5c4)cc3s2)cc1 [Compound 16]

Kd (α-synuclein fibrils; [6]): 210 ± 180 nM
Kd (Aβ42 fibrils): 320 ± 75 nM
Kd (tau fibrils (htau 0N4R)): 280 ± 48 nM
Structure (SMILES): CN(C)c1ccc(-c2nc3ccc(OCCOCCOCCOCCOCCOCCOCCOCCOCCOCCOCCOCCOCCOCCOCCOCCOCCOCCOCCOCCOCCOc4ccc5nc(-c6ccc(N(C)C)cc6)sc5c4)cc3s2)cc1 [Compound 17]

More lines, now with the values behind:

Structure (SMILES): CN(C)c1ccc(-c2nc3ccc(OCCOCCOCCOc4ccc5nc(-c6ccc(N(C)C)cc6)sc5c4)cc3s2)cc1 [Compound 13]
Solubility (sufficient to determine accurate dissociation constants) [1]: not sufficiently soluble
Staining of LB509/pS129-positive Lewy bodies [2]: not
Staining of tau-positive neuronal inclusions [3]: no staining
Staining of 4G8-positive extracellular plaques [4]: no staining

Structure (SMILES): CN(C)c1ccc(-c2nc3ccc(OCCOCCOCCOCCOCCOCCOc4ccc5nc(-c6ccc(N(C)C)cc6)sc5c4)cc3s2)cc1 [Compound 14]
Kd (α-synuclein fibrils; [6]): 190 ± 140 nM
Kd (Aβ42 fibrils): 1400 ± 1600 nM
Kd (tau fibrils (htau 0N4R)): 900 ± 700 nM
Co-localisation with α-synuclein antibodies elsewhere in the brain section [2]: significant amounts of co-localisation
Staining of LB509/pS129-positive Lewy bodies [2]: stained
Staining of tau-positive neuronal inclusions [3]: no staining
Staining of 4G8-positive extracellular plaques [4]: no staining

Structure (SMILES): COCCOCCOCCOc1ccc2nc(-c3ccc(N(C)C)cc3)sc2c1 [monomeric BTA analogue]
Kd (α-synuclein fibrils; monomeric BTA analogue, fluorescence titration, read-out: Kd for α-synuclein (binding affinity too low to measure)): > 1000 nM

Reference: paper PMC8246084, “Mapping the binding site topology of amyloid protein aggregates using multivalent ligands” (Chemical Science, 2021)
